Results reported in patent US20080234384A1, “BIARYL AND BIHETEROARYL COMPOUNDS USEFUL IN TREATING IRON DISORDERS” (XENON PHARMACEUTICALS INC., priority 2007, published 2008).
pIC50: −log10 of the molar value. Where a name gives a salt, the structure may show the parent alone.

Target: T1, DMT1 (Homo sapiens, UniProt P49281)
T1 sequence (P49281 1-568): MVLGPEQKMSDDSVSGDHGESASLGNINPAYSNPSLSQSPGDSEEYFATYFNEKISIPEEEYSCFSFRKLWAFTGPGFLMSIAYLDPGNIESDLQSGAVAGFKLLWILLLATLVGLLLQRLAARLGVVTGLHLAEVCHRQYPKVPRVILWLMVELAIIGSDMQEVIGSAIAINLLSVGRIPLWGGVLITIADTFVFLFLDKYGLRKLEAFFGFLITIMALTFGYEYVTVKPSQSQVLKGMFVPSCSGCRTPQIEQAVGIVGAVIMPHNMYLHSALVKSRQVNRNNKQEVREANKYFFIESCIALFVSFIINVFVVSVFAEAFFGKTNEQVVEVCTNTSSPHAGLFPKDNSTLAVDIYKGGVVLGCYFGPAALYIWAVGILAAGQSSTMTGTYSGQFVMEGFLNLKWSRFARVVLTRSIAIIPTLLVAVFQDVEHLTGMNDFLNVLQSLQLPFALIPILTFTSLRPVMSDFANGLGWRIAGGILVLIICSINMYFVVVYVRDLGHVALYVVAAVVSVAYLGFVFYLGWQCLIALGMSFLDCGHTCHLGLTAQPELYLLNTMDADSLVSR
Assay: DMT1 Activity Assay (In Vitro Assay)
Assay type: cell-based
Settings: read-out: IC50 Activity Level
From the text: In particular, identification of the compounds of the invention ability to modulate, preferably to inhibit, DMT1 activity, can be assessed using a variety of in vitro and in vivo assays, for measuring uptake of reduced iron (Fe^2+). One such protocol involves the screening of chemical agents for ability to modulate the activity of DMT1 thereby identifying it as a modulating agent. The in vitro activity of DMT1 can be measured in cell based assays by either directly measuring iron flux (using a radioactively labelled iron ^55Fe) or by measuring the fluorescence of a cell permeable iron fluorophore such as calcein. Stable cell lines overexpressing DMT1 are exposed to ^55Fe or loaded with calcein and then compound is applied. […] Alternatively, in another format electrophysiological techniques can be used to measure the current or iron or other metals traversing the cell membrane with DMT1 in a Xenopus oocyte or other cell based system (Gunshin et al., Nature, 1997, 31; 388(6641):482-8).
This example discloses various in vitro assay for testing and profiling test agents against DMT1 stably expressed in cells of either an endogenous or recombinant origin. These assays can use stable cell lines overexpressing DMT1 or intestinal cells and intestinal tissue expressing endogenous DMT1. DMT1 function could also be assessed in other cell types that express DMT1. Of greatest relevance would be the erythrocytes (e.g. K562 cells) or hepatocytes (e.g. […]).
DMT1 function can be assessed in a number of ways, including monitoring fluorescence changes of an iron fluorophore (e.g. calcein), monitoring uptake of radiolabelled iron (55Fe or ^59Fe) (Picard et al., J. Biol. Chem., 2000, 275(46):35738-45 and Wetli et al., Chem. Biol. 2006 September; 13(9):965-72), or by assessing the current or transport of iron and other metals into the cells or tissues using standard electrophysiological techniques (Gunshin et al., Nature, 1997, 388(6641):482-8.).
Variations of these assays involve alterations of incubation times, the iron status of the cells and tissues (which may be modulated by chemical chelators or by harvesting from iron deficient animals), the metal cation detected and the pH of the reaction can generally be made by conventional techniques known to those skilled in the art.

pIC50 | SMILES
6.00 to 7.00 | N=C(N)SCc1ccccc1Sc1ccc(N)cc1CSC(=N)N [Example 1.19, 2-[2-(2-carbamimidoylsulfanylmethylphenylsulfanyl)-5-aminobenzyl]-isothiourea trihydrobromide]
≤ 6.00 | N=C(N)SCCc1ccccc1Sc1ccccc1CCSC(=N)N [Example 1.31, dihydrobromide]
6.00 to 7.00 | N=C(N)SCc1cc(F)ccc1Oc1ccc(F)cc1CSC(=N)N [Example 2.13, 2-[2-(2-carbamimidoylsulfanylmethyl-4-fluorophenoxy)-5-fluorobenzyl]isothiourea dihydrobromide]
≤ 6.00 | CS(=O)(=O)c1ccc(CSC(=N)N)c(Sc2ccc(F)cc2CSC(=N)N)c1 [Example 2.7, 2-{[2-({[amino(imino)methyl]thio}methyl)-4-fluorophenyl]thio}-4-(methylsulfonyl)benzyl imidothiocarbamate dihydrochloride]
6.00 to 7.00 | N=C(N)SCc1cc(F)ccc1Sc1cc(F)c(F)cc1CSC(=N)N [Example 1.16, 2-[2-(2-carbamimidoylsulfanylmethyl-4,5-difluorophenylsulfanyl)-5-fluorobenzyl]isothiourea dihydrobromide]
≤ 6.00 | CCNc1ccc(Sc2ccccc2CSC(=N)N)c(CSC(=N)N)c1 [Example 1.21, 2-[2-(2-carbamimidoylsulfanylmethylphenylsulfanyl)-5-ethylaminobenzyl]isothiourea trihydrobromide]
6.00 to 7.00 | CN(C)S(=O)(=O)c1ccc(Sc2ccc(F)cc2CSC(=N)N)c(CSC(=N)N)c1 [Example 2.2, 2-({2-({[amino(imino)methyl]thio}methyl)-4-[(dimethylamino)sulfonyl]phenyl}thio)-5-fluorobenzyl imidothiocarbamate dihydrobromide]
≤ 6.00 | N=C(N)CCc1ccccc1Sc1ccccc1CCC(=N)N [Example 6, 2-(6-(2-amidinoethyl)phenyl)thio-1-(2-amidinoethyl)benzene]
≤ 6.00 | N=C(N)SCc1cc(F)ccc1Sc1ccc2ccccc2c1CSC(=N)N [Example 1.14, 2-[2-(1-carbamimidoylsulfanylmethylnaphthalen-2-ylsulfanyl)-5-fluorobenzyl]isothiourea dihydrobromide]
≤ 6.00 | N=C(N)SCc1ccccc1Oc1cc(Cl)ccc1CSC(=N)N [Example 2.18, 2-[2-({[amino(imino)methyl]thio}methyl)-5-chlorophenoxy]benzyl imidothiocarbamate dihydrobromide]
≤ 6.00 | NC(=S)Nc1ccccc1Sc1ccccc1NC(N)=S [Example 8, 1,1′-(2,2′-thiobis(2,1-phenylene))dithiourea]
≤ 6.00 | N#CN=C(N)Cc1ccccc1Sc1ccccc1CC(N)=NC#N [Example 7.1, 2-(6-((cyanoamidino)methyl)phenyl)thio-1-((cyanoamidino)methyl)benzene]
≤ 6.00 | N=C(N)SCCc1ccccc1Sc1ccccc1CSC(=N)N [Example 1.25, 2-[2-(2-carbamimidoylsulfanylethylphenylsulfanyl)benzyl]isothiourea dihydrobromide]
≤ 6.00 | COC(=O)c1cccc(CSC(=N)N)c1-c1c(CSC(=N)N)cccc1C(=O)OC [Example 2.24, dimethyl 6,6′-bis(carbamimidoylthiomethyl)biphenyl-2,2′-dicarboxylate dihydrobromide]
≤ 6.00 | N=C(N)SCc1ccccc1Sc1ccc(C(F)(F)F)cc1CSC(=N)N [Example 1.27, 2-[2-(2-carbamimidoylsulfanylmethylphenylsulfanyl)-5-(trifluoromethyl)benzyl]isothiourea dihydrobromide]
≤ 6.00 | N=C(N)SCc1cccc(CSC(=N)N)c1-c1c(CSC(=N)N)cccc1CSC(=N)N [Example 2.23, biphenyl-2,2′-6,6′-tetrayltetrakis(methylene)tetracarbamimidothioate tetrahydrobromide]

pIC50 | SMILES
≤ 6.00 | Cc1ccc(CSC(=N)N)c(Sc2ccccc2CSC(=N)N)c1 [Example 1.3, 2-[2-(2-carbamimidoylsulfanylmethyl-5-methylphenylsulfanyl)-benzyl]isothiourea dihydrobromide]
6.00 to 7.00 | N=C(N)SCc1ccccc1C(=O)c1ccc(F)cc1CSC(=N)N [Example 2.26, 2-(6-(amidinothiomethyl)phenyl)carbonyl-1-(amidinothiomethyl)-5-fluorobenzene dihydrobromide]
≤ 6.00 | N=C(NN)SCc1ccccc1Sc1ccccc1CSC(=N)NN [Example 3, 2-(6-((aminoamidino)thiomethyl)phenyl)thio-1-((aminoamidino)thiomethyl)benzene dihydrobromide]
6.00 to 7.00 | N=C(N)SCc1cc(F)ccc1Sc1ccc(Cl)cc1CSC(=N)N [Example 1.20, 2-[2-(2-carbamimidoylsulfanylmethyl-4-chlorophenylsulfanyl)-5-fluorobenzyl]isothiourea dihydrobromide]
6.00 to 7.00 | N=C(N)SCc1cc(F)ccc1Oc1ccc([N+](=O)[O-])cc1CSC(=N)N [Example 2.14, 2-[2-({[amino(imino)methyl]thio}methyl)-4-fluorophenoxy]-5-nitrobenzyl imidothiocarbamate dihydrobromide]
≤ 6.00 | N=C(N)SCc1ccccc1Oc1ccccc1CSC(=N)N [Example 2.15, 2-[2-(2-carbamimidoylsulfanylmethylphenoxy)benzyl]isothiourea dihydrobromide]
6.00 to 7.00 | N=C(N)SCc1ccccc1Sc1cc(Cl)ccc1CSC(=N)N [Example 1.11, 2-[2-(2-carbamimidoylsulfanylmethyl-5-chlorophenylsulfanyl)-benzyl]isothiourea dihydrobromide]
≤ 6.00 | N=C(N)SCc1ccccc1C(=O)c1ccc(Cl)cc1CSC(=N)N [Example 2.29, 2-(6-(amidinothiomethyl)phenyl)carbonyl-1-(amidinothiomethyl)-5-chlorobenzene dihydrobromide]
6.00 to 7.00 | Cc1ccc(Sc2ccccc2CSC(=N)N)c(CSC(=N)N)c1 [Example 1.10, 2-[2-(2-carbamimidoylsulfanylmethyl-4-methylphenylsulfanyl)-benzyl]isothiourea dihydrobromide]
≤ 6.00 | N=C(N)SCc1ccccc1S(=O)(=O)c1ccccc1CSC(=N)N [Example 2.3, 2-[2-(2-carbamimidoylsulfanylmethylphenylsulfonyl)benzyl]-isothiourea dihydrobromide]
≤ 6.00 | N=C(N)SCc1ccccc1Oc1cccc(Cl)c1CSC(=N)N [Example 2.17, 2-[2-({[amino(imino)methyl]thio}methyl)-3-chlorophenoxy]benzyl imidothiocarbamate dihydrobromide]
7.00 to 8.00 | N=C(N)SCc1cc(F)ccc1Sc1ccc([N+](=O)[O-])cc1CSC(=N)N [Example 2.1, 2-{[2-({[amino(imino)methyl]thio}methyl)-4-fluorophenyl]thio}-5-nitrobenzyl imidothiocarbamate dihydrobromide]
6.00 to 7.00 | CN(c1ccccc1CSC(=N)N)c1ccccc1CSC(=N)N [Example 1.28, 2,2′-(methylazanediyl)bis(2,1-phenylene)bis-(methylene)dicarbamimidothioate trihydrobromide]
≤ 6.00 | N=C(N)SCc1cc(F)ccc1Oc1cccc(Cl)c1CSC(=N)N [Example 2.10, 2-[2-(2-carbamimidoylsulfanylmethyl-3-chlorophenoxy)-5-fluorobenzyl]isothiourea dihydrobromide]
6.00 to 7.00 | N=C(N)SCc1cc(F)ccc1Sc1cscc1CSC(=N)N [Example 2.5, (4-{[2-({[amino(imino)methyl]thio}methyl)-4-fluorophenyl]thio}-3-thienyl)methyl imidothiocarbamate dihydrochloride]
6.00 to 7.00 | CS(=O)(=O)c1ccc(Sc2ccc(F)cc2CSC(=N)N)c(CSC(=N)N)c1 [Example 1.30, 2-[2-(2-carbamimidoylsulfanylmethyl-4-fluorophenylsulfanyl)-5-(methylsulfonyl)benzyl]isothiourea dihydrobromide]
